{"source": "patent US8129413B2", "about": "“Crystalline forms of MC4R agonist and process for synthesis” (Merck Sharp & Dohme Corp., priority 2005, dated 2012)", "type_in_all_cases": "physicochemical", "key": {"[1]": {"experiment": "Storage stability of the free base"}, "[2]": {"experiment": "Crystal form conversion on exposure to relative humidity", "description": "(§1) Method 2 Drying the crystalline hydrate mono HCl salt of Compound I (1-7) at a temperature over about 4° C. and relative a humidity less than about 10% yields the crystalline anhydrous mono HCl salt Form I of Compound I (1-5). The crystalline hydrate mono HCl salt of Compound I (1-7) converts to the crystalline anhydrous mono HCl salt Form I of Compound I (1-5) by means of a continuous change; as the crystalline hydrate is dried, the x-ray diffraction pattern, solid-state carbon-13 CPMAS, and solid-state fluorine-19 MAS patterns merge from the crystalline hydrate to crystalline anhydrous Form I. Incomplete conversion to the anhydrous form I will yield a unique phase, not merely a mixture of crystalline anhydrous form I and crystalline hydrate.\nMethod 1 A solution of compound 1-3 from Example 1 (14.6 g, 26.7 mmol) in isopropyl acetate (91 ml, at 160 g/L) was agitated in vessel 1 at 15-25° C., and 0.5 N HCl/H2O solution (54.4 mL, 27.2 mmol) was added. The mixture was aged for 5-10 minutes with agitation followed by settling without agitation. The aqueous layer was removed and transferred to vessel 2. 20 ml of deionized water were charged to vessel 1, as a rinse of the isopropyl acetate layer. After agitating the isopropyl acetate-deionized water mixture for about 5 minutes, the aqueous layer was removed and combined with the aqueous layer in vessel 2. […]"}, "[3]": {"experiment": "Thermodynamic stability and interconversion of crystalline forms", "description": "as §1"}}, "data": [{"smiles": "CC(=O)N[C@@H](C)c1cc(Cl)ccc1C1CCN(C(=O)[C@@H]2CN(C(C)(C)C)C[C@H]2c2ccc(F)cc2F)CC1", "note": "[Compound I, N-{(1S)-1-[2-(1-{[(3S,4R)-1-tert-butyl-4-(2,4-difluorophenyl)pyrrolidin-3-yl]carbonyl}piperidin-4-yl)-5-chlorophenyl]ethyl}acetamide]", "values": [{"measurement": "stability of the solid form", "setting": "[1]; storage, light, heat", "result": "unstable, photosensitive and thermally sensitive"}, {"measurement": "storage temperature above which subject to oxidation", "setting": "[1]; stored", "result": "greater than −40 °C"}]}, {"smiles": "CC(=O)N[C@@H](C)c1cc(Cl)ccc1C1CCN(C(=O)C2CN(C(C)(C)C)C[C@H]2c2ccc(F)cc2F)CC1", "note": "(stereo partly drawn) [Compound 1-5]", "values": [{"measurement": "relative humidity at which anhydrous Form I converts to crystalline hydrate mono HCl salt", "setting": "[2]; exposure to humidity, continuous structural change", "result": "greater than 20%"}]}, {"smiles": "CC(=O)N[C@@H](C)c1cc(Cl)ccc1C1CCN(C(=O)C2CN(C(C)(C)C)C[C@H]2c2ccc(F)cc2F)CC1", "note": "(stereo partly drawn) [Compound 1-6]", "values": [{"measurement": "physical stability of the crystal form (conversion to another form)", "setting": "[3]; room temperature", "result": "converts to crystalline anhydrous mono HCl salt Form I (1-5) at room temperature"}]}, {"smiles": "CC(=O)N[C@@H](C)c1cc(Cl)ccc1C1CCN(C(=O)C2CN(C(C)(C)C)C[C@H]2c2ccc(F)cc2F)CC1", "note": "(stereo partly drawn) [Compound 1-7]", "values": [{"measurement": "relative humidity at which hydrate converts to anhydrous mono HCl salt Form I", "setting": "[2]; drying at a temperature over about 4° C.", "result": "less than 10%"}, {"measurement": "thermodynamic stability among crystalline forms", "setting": "[3]; ambient conditions", "result": "most thermodynamically stable crystalline form"}]}]}
